The values that follow come from patent US20060258729A1, “Antibacterial pyrazole carboxylic acid hydrazides” (priority 2002, published 2006).

The structures appear in SMILES notation. ≈ marks a conversion by molar mass, not a printed value.

For assay [1], the system named is Staphylococcus aureus strain IP 8. Kind of assay: Inhibition of bacterial growth (MIC), Sa. The format is cell-based. The note with it: IP8, 16 to 18 hours, 37° C., read-out: Minimum Inhibitory Concentration for Bacterial Growth, Sa. The method, boiled down: (§1)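 Log-phase cultures were diluted to 1×10^5 CFU/mL in LB or BHI medium and exposed to two-fold serial compound dilutions (usually 80-0.078 μg/mL, 11 concentrations) with 1% DMSO final. After shaking incubation at 37° C. for 16 to 18 hours, growth was read as OD at 570 nm.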

Assay [2] concerns E. faecium clinical isolate. Kind of assay: Inhibition of bacterial growth (MIC), Efcm. It is filed as cell-based. The note with it: Enterococcus faecium, 16 to 18 hours, 37° C., read-out: Minimum Inhibitory Concentration for Bacterial Growth, Efcm. A digest of the protocol:
as §1

For another assay, the target named is T1, B. subtilis pol IIIC (Bacillus subtilis, UniProt P13267).
T1 construct: made in house
T1 sequence (P13267 whole entry): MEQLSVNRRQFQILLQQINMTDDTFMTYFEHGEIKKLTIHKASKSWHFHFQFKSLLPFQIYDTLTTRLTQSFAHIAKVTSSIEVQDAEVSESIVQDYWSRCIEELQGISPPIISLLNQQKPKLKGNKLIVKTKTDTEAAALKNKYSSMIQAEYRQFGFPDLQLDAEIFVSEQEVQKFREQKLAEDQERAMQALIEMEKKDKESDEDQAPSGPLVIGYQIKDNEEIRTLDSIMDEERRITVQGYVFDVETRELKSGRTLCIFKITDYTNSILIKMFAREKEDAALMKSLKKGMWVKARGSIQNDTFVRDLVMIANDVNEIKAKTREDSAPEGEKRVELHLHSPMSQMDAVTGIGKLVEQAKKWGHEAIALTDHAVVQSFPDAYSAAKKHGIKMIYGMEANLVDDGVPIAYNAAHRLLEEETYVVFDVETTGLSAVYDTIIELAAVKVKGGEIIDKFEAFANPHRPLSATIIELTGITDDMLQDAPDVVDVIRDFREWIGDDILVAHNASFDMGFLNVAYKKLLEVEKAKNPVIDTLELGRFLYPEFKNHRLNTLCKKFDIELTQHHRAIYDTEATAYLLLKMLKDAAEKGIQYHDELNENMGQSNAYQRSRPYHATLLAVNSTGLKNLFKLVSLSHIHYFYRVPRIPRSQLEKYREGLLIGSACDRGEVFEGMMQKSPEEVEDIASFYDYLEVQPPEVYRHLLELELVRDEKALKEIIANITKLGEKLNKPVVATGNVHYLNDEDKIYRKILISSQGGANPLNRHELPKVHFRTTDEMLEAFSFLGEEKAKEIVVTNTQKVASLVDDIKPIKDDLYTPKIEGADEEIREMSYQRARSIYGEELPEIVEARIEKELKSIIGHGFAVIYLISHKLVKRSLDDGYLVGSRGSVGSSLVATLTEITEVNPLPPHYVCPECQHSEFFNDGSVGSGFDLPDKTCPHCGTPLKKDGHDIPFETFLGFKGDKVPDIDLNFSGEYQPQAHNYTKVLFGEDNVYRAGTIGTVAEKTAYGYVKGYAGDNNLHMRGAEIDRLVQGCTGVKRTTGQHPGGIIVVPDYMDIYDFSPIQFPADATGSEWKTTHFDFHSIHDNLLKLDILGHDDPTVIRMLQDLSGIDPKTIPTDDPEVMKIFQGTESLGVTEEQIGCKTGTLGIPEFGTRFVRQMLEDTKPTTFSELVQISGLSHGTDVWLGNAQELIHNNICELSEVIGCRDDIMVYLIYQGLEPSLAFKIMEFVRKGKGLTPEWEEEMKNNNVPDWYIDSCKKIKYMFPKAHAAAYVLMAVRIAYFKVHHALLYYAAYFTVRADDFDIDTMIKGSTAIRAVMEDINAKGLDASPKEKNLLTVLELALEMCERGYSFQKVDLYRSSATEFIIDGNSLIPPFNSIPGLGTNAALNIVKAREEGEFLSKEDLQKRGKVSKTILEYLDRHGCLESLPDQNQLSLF
Kind of assay: Classical enzyme kinetic analyses (Lineweaver-Burk) with pol IIIC. The note with it: variable substrate dGTP; Compound 17 at 0, 20, 60 μM; HB-EMAU at 0, 1.6, 4.8 μM. It is filed as biochemical. The procedure: The variable substrate in the experiments for FIGS. 1A and 1B was dGTP. See text for details.
Classical enzyme kinetic analyses were performed with Compound 17 and pol IIIC in which reaction velocity was measured as a function of each substrate (dGTP) concentration at several inhibitor concentrations (0, 20, and 60 μM). The results are graphed in a double reciprocal plot by the method of Lineweaver and Burk in FIG. 1A and show the effect of varying dGTP.
Compounds of the anilinouracil (AU) family, classical DNA polymerase inhibitors, inhibit pol IIIC strictly by “competitive” inhibition. An example is shown in the double reciprocal plot in FIG. 1B for the compound N3-hydroxybutyl 6-(3′-ethyl-4′-methylanilino) uracil (HB-EMAU), tested at 0, 1.6, and 4.8 μM. Such AU compounds compete with the dGTP substrate for binding to the enzyme (Clements et al., J. Biol. Chem. 250, 522-526 (1975)). “Noncompetive” inhibitors are exemplified by the class of HIV reverse transcriptase inhibitors, 4,5,6,7-tetrahydro-5-methylimidazo[4,5,1-jk][1,4]benzodiazepin-2(1H)-one (TIBO), i.e., TIBO compounds bind a site adjacent to the active site (Spence et al., Science 267, 988-993 (1995)). In contrast, the data in FIG. 1A clearly indicate that Compound 17, a pyrazole carboxylic acid hydrazide, inhibits pol IIIC by an “uncompetitive” mechanism.

The subject of the next assay is test strains of bacteria. Kind of assay: Inhibition of bacterial growth, whole panel of test strains. It is filed as cell-based. On the procedure:
Each compound was assayed against a panel of a strain of Bacillus subtilis, of strains of antibiotic-resistant and sensitive Enterococcus and Staphylococcus species, and of a strain of the Gram-negative bacterium Escherichia coli. Compounds were dissolved in DMSO at 100× the desired highest concentration and added to one well of a 96-well microassay plate. Two-fold serial drug dilutions were made across the plate in DMSO to yield 11 concentrations (usually 80-0.078 μg/mL) plus an untreated control. Drugs were then transferred to fresh plates using 1.5 μL per well. Log phase cultures were diluted to yield a concentration of 1×10^5 colony forming units/mL in either LB or BHI medium and transferred to the plates containing drug for a final volume of 150 μL. Each well, including the DMSO controls, contained a final concentration of 1% DMSO. Plates were incubated with shaking at 37° C. for 16 to 18 hours. Cell growth was determined by measuring optical density (570 nm, 1 cm path length) in a microplate reader. MIC (minimum inhibitory concentration) is equivalent to the lowest concentration at which growth is not observed. The bacterial strains and MIC determinations have been well characterized and are described elsewhere (Tarantino et al., Antimicrob. Agents Chemother., 43: 1982-1987 (1999); Daly et al., Antimicrob. Agents Chemother., 44: 2217-2221 (2000)).

Take `COc1ccc(-c2cc(C(=O)NN=Cc3cc(OC)c(OC)c(OC)c3)[nH]n2)cc1` [Compound 17]: the values for the MIC in assay [1] and in assay [2] were 1.25 µg/mL (≈ 3.05 µM) and 5 µg/mL (≈ 12.2 µM), respectively. Further, on B. subtilis pol IIIC, the “Mechanism of inhibition of pol IIIC (double reciprocal plot)” value is on record as “uncompetitive inhibition mechanism”. Moreover, the “Inhibition of bacterial growth, result in words (rank of MIC values)” value in the assay on test strains of bacteria was “lowest MIC values”.
